Measurements as given in US20260234180A1, “AMINO ACID DERIVATIVE, PREPARATION METHOD THEREFOR, AND PHARMACEUTICAL COMPOSITION FOR TREATING HEPATITIS, COMPRISING SAME” (priority 2021, published 2026).

Assays:
HBV virus = assay: HBV infection of HepG2-NTCP cells, HBeAg ELISA analysis; assay type: cell-based, hepatitis B virus (HBV); conditions: 20 μM, O.D. 450 nm
Protocol: Specifically, the HepG2-NTCP cell line was cultured on a 6-well plate, incubation was performed overnight, HBV inhibitors were treated at a concentration of 20 μM, and the positive control Myrcludex-B (MyrB) was treated at a concentration of 200 nM, followed by culture for 24 hours. After HBV infection into the cells to make HBV 3000 genome equivalent per ml/cell (Geq/cell), the cell culture medium was replaced (medium changing, MC) a day after the viral infection to remove the virus unattached to cell membranes. In order to measure an amount of virus that entered the cell, medium changing (MC) was performed once more 4 days after viral infection. 2 days after replacement, HBeAg ELISA analysis was performed using a supernatant, and Southern blot analysis was performed with cell pellets.
HBeAg ELISA analysis was performed using an HBeAg ELISA kit (sanbio, Wantai HBeAg ELISA, cat #WB-2496) for the supernatant obtained by the method in Experimental Example 4-1.
First, a negative control group (Mock), positive control group (MyrB), and samples according to the present disclosure were loaded, by 50 μl each to be triplicate, onto a 96-well plate coated with capture Ab. In this case, Example 1 (LCA-ILE), Example 44 (LCA-Val), Example 52 (LCA-Tyr), Example 51 (LCA-Ser), Example 55 (LCA-Glu), Example 2 (UDCA-Ile), Example 3 (UDCA-Val), Example 25 (LCA-Val-Trp), Example 10 (DCA-Ile), Comparative Example 1 (LCA), and Comparative Example 2 (UDCA) were used as the sample.
The HRP-conjugated detection antibody was loaded into each well by 50 μl, followed by a reaction at 37° C. for 30 minutes. Washing buffer (1×PBS, 0.5% Tween20) was added by 200 μl, and washing was performed 5 times. 50 μl of chromogen solution A and 50 μl of chromogen solution B were added to each well, and a reaction was carried out in the darkness at 37° C. for 15 minutes. The stop solution was added to each well by 50 μl each to stop the reaction, and the amount of HBeAg was measured by measuring the absorbance (optical density, O.D.) level in the 450 nm wavelength band.

[1] = molecular target: T1, NTCP (Na+ taurocholate cotransporting peptide), HepG2-hNTCP-C4 cell line (Homo sapiens, UniProt Q14973); assay: Inhibition of binding between FITC-labelled PreS1 and NTCP expressing cell line, flow cytometry; conditions: for relative fluorescence intensity compared to Comparative Example 1 (LCA): compound 50 µM, 20 nM PreS1, 4° C., 2 hours, lower = more inhibited binding; for relative fluorescence intensity in comparison with the parent bile acid Comparative Example: vs Comparative Example 2 (UDCA), 5 (DCA) or 6 (CDCA), method as Experimental Example 1-1
T1 construct: expressed in transfected cells; host or cells: HepG2-hNTCP-C4 (HepG2 cells expressing human NTCP)
T1 sequence (Q14973 1-349): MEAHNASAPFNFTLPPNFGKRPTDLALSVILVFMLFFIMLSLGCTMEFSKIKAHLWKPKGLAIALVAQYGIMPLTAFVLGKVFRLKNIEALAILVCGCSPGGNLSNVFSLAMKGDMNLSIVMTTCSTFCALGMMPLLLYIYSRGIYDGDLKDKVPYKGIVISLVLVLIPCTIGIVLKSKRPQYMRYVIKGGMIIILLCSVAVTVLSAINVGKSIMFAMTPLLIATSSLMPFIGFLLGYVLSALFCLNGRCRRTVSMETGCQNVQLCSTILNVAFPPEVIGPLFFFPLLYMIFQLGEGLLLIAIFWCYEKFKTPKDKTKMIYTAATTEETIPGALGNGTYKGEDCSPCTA
Protocol: HepG2-hNTCP-C4 cell line, a cell line expressing NTCP, was seeded in a 6 well plate at a density of 2×10^5/well and incubated at 4° C. for 30 minutes when the confluency reached 80% after overnight incubation for 2 days. Thereafter, 20 nM PreS1 (Myr-GTNL […]-Lys(FITC) (SEQ ID NO: 1)) and the compounds in Example 1, Examples 38 to 56 or the compound in Comparative Example 1 were treated by diluting in culture media at 4° C. at a concentration of 50 µM respectively, and the media was suctioned after 2 hours, followed by washing 3 times with 4° C. PBS. In order to take the cells off from the plate, 500 μl of 0.5 mM EDTA PBS solution was treated, and then incubation was performed at 37° C. for 15 minutes to check whether the cells fell off through an optical microscope. After taking off the cells by pipetting, the cells were collected in a 1.5 ml tube and centrifuged (4000 rpm, 4° C., 3 min). After suctioning the supernatant, the pellet was washed 3 times with 4° C. PBS, and then green fluorescence was measured via flow cytometry. In this case, taurocholic acid (TCA), a compound known as a substrate of NTCP to reduce the entry of HBV or HDV, was used as a positive control group.
In the graph at the top of FIG. 1, black (1) and red (2) indicate a negative control group with no treatment and an HBV-induced group (HBV preS1) solely treated with PreS1, respectively. Blue (HBV preS1+HBV entry inhibitor) (3) is the fluorescence value for each of Examples or Comparative Examples, evaluated that the closer to the negative control group, the more inhibited the binding between PreS1 and the NTCP cell line.
The experimental method was the same as in the Experimental Example 1-1, and 20 nM PreS1 and each compound were treated at 4 concentrations (0.2 μM, 2 μM, 10 μM, 50 μM).
With an expectation that there is a structure-activity relationship among compounds composed of bile acid and amino acids, for each of bile acids in Comparative Example 1 (lithocholic acid, LCA), Comparative Example 2 (ursodeoxycholic acid, UDCA), Comparative Example 3 (cholic acid, CA), Comparative Example 4 (hyodeoxycholic acid, HDCA), Comparative Example 5 (deoxycholic acid, DCA), and Comparative Example 6 (chenodeoxycholic acid, CDCA), an evaluation experiment was conducted on an ability to inhibit the binding between PreS1 and NTCP expressing cell lines, and also for Examples 1 (LCA-Ile) and Example 44 (LCA-Val) as well as the compounds in Example 2 (UDCA-Ile), Example 3 (UDCA-Val), Example 6 (CA-Ile), Example 7 (CA-Val), Example 8 (HDCA-Ile), Example 9 (HDCA-Val), Example 10 (DCA-Ile), Example 11 (DCA-Val), Example 14 (CDCA-Ile), and Example 15 (CDCA-Val) in which bile acid parts (lithocholic acid) of Example 1 (LCA-Ile) and Example 44 (LCA-Val) were substituted with other types of bile acids in Comparative Examples 2 to 6, an evaluation experiment was conducted on an ability to inhibit the binding between PreS1 and NTCP expressing cell lines. The experimental method was the same as in the Experimental Example 1-1, and 18 compounds in the Comparative Examples 1 to 6, Examples 1 to 3, Examples 6 to 11, Examples 14 to 15, and Example 44 were treated at a concentration of 50 µM along with 20 nM PreS1.
In FIG. 9, an evaluation experiment was conducted to check a degree of inhibiting the binding between PreS1 and NTCP expressing cell lines for compounds in Examples 4 to 5, Examples 12 to 13, Examples 16 to 17, and Comparative Examples 2 (ursodeoxycholic acid, UDCA), Comparative Examples 5 (deoxycholic acid, DCA), and Comparative Examples 6 (chenodeoxycholic acid, CDCA) according to the present disclosure. The experimental method was the same as the Experimental Example 1-1.
In the Experimental Examples 1-4, it was determined whether there is additionally concentration dependence for Example 4 (UDCA-Trp), a compound with good inhibitory ability. […]

Compound | relative fluorescence intensity compared to Comparative Example 1 (LCA) [1] | relative fluorescence intensity in comparison with the parent bile acid Comparative Example [1] | also measured
C[C@H](CCC(=O)N[C@@H](CO)C(=O)O)[C@H]1CC[C@H]2[C@@H]3CC[C@@H]4C[C@H](O)CC[C@]4(C)[C@H]3CC[C@]12C [Example 51, (S)-3-hydroxy-2-((R)-4-((3R,5R,8R,9S,10S,13R,14S,17R)-3-hydroxy-10,13-dimethyl-hexadecahydro-1H-cyclopenta[a]phenanthren-17-yl)pentanamido)propanoic acid] | low | – | HBeAg absorbance level relative to the negative control group (Mock) (HBV virus): relatively lower
C[C@H](CCC(=O)N[C@@H](Cc1ccc(O)cc1)C(=O)O)[C@H]1CC[C@H]2[C@@H]3[C@H](O)C[C@@H]4C[C@H](O)CC[C@]4(C)[C@H]3CC[C@]12C [Example 17, (S)-2-((R)-4-((3R,5S,7R,8R,9S,10S,13R,14S,17R)-3,7-dihydroxy-10,13-dimethyl-hexadecahydro-1H-cyclopenta[a]phenanthren-17-yl)pentanamido)-3-(4-hydroxyphenyl)propanoic acid] | – | low | –
C[C@H](CCC(=O)N1CCCC1C(=O)O)[C@H]1CC[C@H]2[C@@H]3CC[C@@H]4C[C@H](O)CC[C@]4(C)[C@H]3CC[C@]12C (stereo partly drawn) [Example 38, 1-((R)-4-((3R,5R,8R,9S,10S,13R,14S,17R)-3-hydroxy-10,13-dimethyl-hexadecahydro-1H-cyclopenta[a]phenanthren-17-yl)pentanoyl)pyrrolidine-2-carboxylic acid] | low and lower | – | –
C[C@H](CCC(=O)N[C@@H](Cc1cnc[nH]1)C(=O)O)[C@H]1CC[C@H]2[C@@H]3CC[C@@H]4C[C@H](O)CC[C@]4(C)[C@H]3CC[C@]12C [Example 43, (S)-2-((R)-4-((3R,5R,8R,9S,10S,13R,14S,17R)-3-hydroxy-10,13-dimethyl-hexadecahydro-1H-cyclopenta[a]phenanthren-17-yl)pentanamido)-3-(1H-imidazol-5-yl)propanoic acid] | low | – | –
CSCC[C@H](NC(=O)CC[C@@H](C)[C@H]1CC[C@H]2[C@@H]3CC[C@@H]4C[C@H](O)CC[C@]4(C)[C@H]3CC[C@]12C)C(=O)O [Example 48, (S)-2-((R)-4-((3R,5R,8R,9S,10S,13R,14S,17R)-3-hydroxy-10,13-dimethyl-hexadecahydro-1H-cyclopenta[a]phenanthren-17-yl)pentanamido)-4-(methylthio)butanoic acid] | low and lower | – | –
C[C@H](CCC(=O)N[C@@H](Cc1ccc(O)cc1)C(=O)O)[C@H]1CC[C@H]2[C@@H]3[C@@H](O)C[C@@H]4C[C@H](O)CC[C@]4(C)[C@H]3CC[C@]12C [Example 5, (S)-2-((R)-4-((3R,5S,7S,8R,9S,10S,13R,14S,17R)-3,7-dihydroxy-10,13-dimethyl-hexadecahydro-1H-cyclopenta[a]phenanthren-17-yl)pentanamido)-3-(4-hydroxyphenyl)propanoic acid] | – | low | difference in degree of competitive inhibition versus Comparative Example 2 (UDCA) ([1]; compared to the HBV-induced group (PreS1-FITC) solely treated with PreS1): about 2 times
C[C@H](CCC(=O)N[C@@H](Cc1ccccc1)C(=O)O)[C@H]1CC[C@H]2[C@@H]3CC[C@@H]4C[C@H](O)CC[C@]4(C)[C@H]3CC[C@]12C [Example 49, (S)-2-((R)-4-((3R,5R,8R,9S,10S,13R,14S,17R)-3-hydroxy-10,13-dimethyl-hexadecahydro-1H-cyclopenta[a]phenanthren-17-yl)pentanamido)-3-phenylpropanoic acid] | low | – | –
C[C@H](CCC(=O)N[C@@H](Cc1ccc(O)cc1)C(=O)O)[C@H]1CC[C@H]2[C@@H]3CC[C@@H]4C[C@H](O)CC[C@]4(C)[C@H]3C[C@H](O)[C@]12C [Example 13, (S)-2-((R)-4-((3R,5R,8R,9S,10S,12S,13R,14S,17R)-3,12-dihydroxy-10,13-dimethyl-hexadecahydro-1H-cyclopenta[a]phenanthren-17-yl)pentanamido)-3-(4-hydroxyphenyl)propanoic acid] | – | the same or lower | –
